Test results from patent US20230295201A1 (Gilead Sciences, Inc., priority 2020, published 2023).
Read-outs that look alike come from different tables or passages of the source.

How the values were obtained:
RSV A2 = assay: RSV NHBE EC50 (RSV A2 antiviral assay in normal human bronchial epithelial cells); format: cell-based; settings: read-out: RSV NHBE EC50
Procedure: Normal human bronchial epithelial (NHBE) cells were purchased from Lonza (Walkersville, MD, Cat #CC-2540) and cultured in Bronchial Epithelial Growth Media (BEGM) (Lonza, Walkersville, MD, Cat #CC-3170). The cells were passaged 1-2 times per week to maintain <80% confluency. The NHBE cells were discarded after 6 passages in culture.
To conduct the RSV A2 antiviral assay, NHBE cells were plated in 96-well plates at a density of 7,500 cells per well in BEGM and allowed to attach overnight at 37° C. Following attachment, 100 μL of cell culture media was removed and 3-fold serially diluted compound was added using a Hewlett-Packard D300 Digital Dispenser. The final concentration of DMSO was normalized to 0.05%. Following compound addition, the NHBE cells were infected by the addition of 100 μL of RSV A2 at a titer of 1×10^4.5 tissue culture infectious doses/mL in BEGM and then incubated at 37° C. for 4 days. […] The mixtures were incubated for 10 minutes at 25° C., and the luminescence signal was quantified on an Envision luminescence plate reader.

RSV strain A2 = assay: RSV HEp-2 EC50 (infectious cytopathic cell protection assay); format: cell-based; settings: read-out: RSV HEp-2 EC50
Procedure: Antiviral activity against RSV is determined using an infectious cytopathic cell protection assay in HEp-2 cells. In this assay, compounds inhibiting viral infection and/or replication produce a cytoprotective effect against the virus-induced cell killing that can be quantified using a cell viability reagent. The techniques used here are novel adaptations of methods described in published literature (Chapman et al., Antimicrob Agents Chemother. 2007, 51(9):3346-53.)
HEp-2 cells are obtained from ATCC (Manassas, VI) and maintained in MEM media supplemented with 10% fetal bovine serum and penicillin/streptomycin. Cells are passaged twice a week and kept at subconfluent stage. Commercial stock of RSV strain A2 (Advanced Biotechnologies, Columbia, MD) is titered before compound testing to determine the appropriate dilution of the virus stock that generates desirable cytopathic effect in HEp-2 cells.
For antiviral tests, HEp-2 cells are grown in large cell culture flasks to near confluency but not fully so. The compounds to be tested are prediluted in DMSO in 384-well compound dilution plates, either in an 8 or 40 sample per plate standardized dose response format. 3-fold serial dilution increments of each test compound are prepared in the plates and test samples are transferred via acoustic transfer apparatus (Echo, Labcyte) at 100 nL per well into cell culture assay 384-well plates. Each compound dilution is transferred in single or quadruplicate samples into dry assay plates, which are stored until assay is ready to go. The positive and negative controls are laid out in opposite on ends of the plate in vertical blocks (1 column).
Subsequently, an infectious mixture is prepared using an appropriate dilution of virus stock previously determined by titration with cells at a density of 50,000/ml and 20 µL/well is added to test plates w/compounds via automation (uFlow, Biotek). Each plate includes negative and positive controls (16 replicates each) to create 0% and 100% virus inhibition standards, respectively. Following the infection with RSV, testing plates are incubated for 4 days in a 37° C. cell culture incubator. After the incubation, a cell viability reagent, Cell TiterGlo (Promega, Madison, WI) is added to the assay plates, which are incubated briefly, and a luminescent readout is measured (Envision, Perkin Elmer) in all the assay plates. The RSV-induced cytopathic effect, percentage inhibition, is determined from the levels of remaining cell viability. […] Various potent anti-RSV tool compounds are used as positive controls for antiviral activity.

[1] = human respiratory syncytial virus, NHBE, 96 h
[2] = human respiratory syncytial virus, 96 h, NHBE cells, RSV A2, 4 days
[3] = human respiratory syncytial virus, 96 h, HEp-2 cells, RSV A2, 4 days
[4] = human respiratory syncytial virus, NHBE, 96 h, NHBE cells, RSV A2, 4 days
[5] = human respiratory syncytial virus, HEp-2, 96 h, HEp-2 cells, RSV A2, 4 days

SMILES	EC50 (RSV A2; NHBE cells, RSV A2, 4 days) [nM]	EC50 (RSV strain A2; HEp-2 cells, RSV A2, 4 days) [nM]	EC50 (RSV strain A2; [5]) [nM]	other results
CC(C)(C)C(=O)OCCNP(=O)(OCC1(C#N)OC(c2ccc3c(N)ncnn23)C(O)C1O)Oc1ccccc1 (single isomer, unassigned) [Example 13]	30	93		
CC[C@H](NP(=O)(OC[C@@]1(C#N)O[C@@H](c2ccc3c(N)ncnn23)[C@H](O)[C@@H]1O)Oc1ccccc1)C(=O)OC1CCCC1 (single isomer, unassigned) [Example 110]	339	281		
COC(=O)[C@H](C)NP(=S)(OC[C@@]1(C#N)O[C@@H](c2ccc3c(N)ncnn23)[C@H](O)[C@@H]1O)Oc1ccccc1 (stereo partly drawn) [Example 71, methyl ((((2R,3S,4R,5S)-5-(4-aminopyrrolo[2,1-f][1,2,4]triazin-7-yl)-2-cyano-3,4-dihydroxytetrahydrofuran-2-yl)methoxy)(phenoxy)phosphorothioyl)-L-alaninate]				EC50 (RSV A2; [1]): > 5000 nM; EC50 (RSV strain A2; human respiratory syncytial virus, HEp-2, 96 h): 3140 nM
CCC(CC)COC(=O)[C@H](C)NP1(=O)OC[C@@]2(C#N)O[C@@H](c3ccc4c(N)ncnn34)[C@H](O)[C@@H]2O1 (stereo partly drawn) [Example 169, 2-ethylbutyl ((4aR,6S,7S,7aS)-6-(4-aminopyrrolo[2,1-f][1,2,4]triazin-7-yl)-4a-cyano-7-hydroxy-2-oxidotetrahydro-4H-furo[3,2-d][1,3,2]dioxaphosphinin-2-yl)-L-alaninate]				EC50 (RSV A2; [2]): 965 nM; EC50 (RSV strain A2; [3]): 524 nM
CCC(CC)COC(=O)[C@H](CC(C)C)NP(=O)(OC[C@@]1(C#N)O[C@@H](c2ccc3c(N)ncnn23)[C@H](O)[C@@H]1O)Oc1ccccc1 (mixture of isomers) [Example 127, (2S)-2-ethylbutyl 2-(((((2R,3S,4R,5S)-5-(4-aminopyrrolo[2,1-f][1,2,4]triazin-7-yl)-2-cyano-3,4-dihydroxytetrahydrofuran-2-yl)methoxy)(phenoxy)phosphoryl)amino)-4-methylpentanoate]			1730	EC50 (RSV A2; [4]): 434 nM
CCOCCOCCOC(=O)[C@H](C)NP(=O)(OC[C@@]1(C#N)O[C@@H](c2ccc3c(N)ncnn23)[C@H](O)[C@@H]1O)Oc1ccccc1 (single isomer, unassigned) [Example 75]			1260	
CCC(CC)COC(=O)[C@@H](C)NP(=O)(OC[C@@]1(C#N)O[C@@H](c2ccc3c(N)ncnn23)[C@H](O)[C@@H]1O)Oc1ccccc1 (single isomer, unassigned) [Example 83]	953	5300		
COCCCOC(=O)[C@H](C)NP(=O)(OC[C@@]1(C#N)O[C@@H](c2ccc3c(N)ncnn23)[C@H](O)[C@@H]1O)Oc1ccccc1 (mixture of isomers) [Example 58, 3-Methoxypropyl ((((2R,3S,4R,5S)-5-(4-aminopyrrolo[2,1-f][1,2,4]triazin-7-yl)-2-cyano-3,4-dihydroxytetrahydrofuran-2-yl)methoxy)(phenoxy)phosphoryl)-L-alaninate]				EC50 (RSV A2; [4]): 917 nM
CC[C@H](NP(=O)(OC[C@@]1(C#N)O[C@@H](c2ccc3c(N)ncnn23)[C@H](O)[C@@H]1O)Oc1ccccc1)C(=O)OCC(C)(C)C (stereo partly drawn) [Example 157, neopentyl (2S)-2-(((((2R,3S,4R,5S)-5-(4-aminopyrrolo[2,1-f][1,2,4]triazin-7-yl)-2-cyano-3,4-dihydroxytetrahydrofuran-2-yl)methoxy)(phenoxy)phosphoryl)amino)butanoate]			972	EC50 (RSV A2; [4]): 163 nM
CCC(CC)COC(=O)CNP(=O)(NCC(=O)OCC(CC)CC)OC[C@@]1(C#N)O[C@@H](c2ccc3c(N)ncnn23)[C@H](O)[C@@H]1O [Example 226, 2-Ethylbutyl ((((2R,3S,4R,5S)-5-(4-aminopyrrolo[2,1-f][1,2,4]triazin-7-yl)-2-cyano-3,4-dihydroxytetrahydrofuran-2-yl)methoxy)((2-(2-ethylbutoxy)-2-oxoethyl)amino)phosphoryl)glycinate]				EC50 (RSV A2; [2]): 2550 nM; EC50 (RSV strain A2; [3]): 1910 nM
CCC(CC)COC(=O)[C@H](CC(C)C)NP(=O)(OC[C@@]1(C#N)O[C@@H](c2ccc3c(N)ncnn23)[C@H](O)[C@@H]1O)Oc1ccccc1 (single isomer, unassigned) [Example 128]	164	1870		
C[C@H](NP(=O)(OC[C@@]1(C#N)O[C@@H](c2ccc3c(N)ncnn23)[C@H](O)[C@@H]1O)Oc1ccccc1)C(=O)OCC(C)(C)C(F)(F)F (single isomer, unassigned) [Example 261]			34	
C[C@H](N[P@@](=O)(OC[C@@]1(C#N)O[C@@H](c2ccc3c(N)ncnn23)[C@H](O)[C@@H]1O)Oc1ccccc1)C(=O)OCC(C)(C)C [Example 93]	85	2840		
C[C@H](NP(=O)(OC[C@@]1(C#N)O[C@@H](c2ccc3c(N)ncnn23)[C@H](O)[C@@H]1O)Oc1ccccc1)C(=O)O[C@H]1CC[C@@H](C(F)(F)F)CC1 (single isomer, unassigned) [Example 179]	> 4800	591		
C[C@H](NP(=O)(OC[C@@]1(C#N)O[C@@H](c2ccc3c(N)ncnn23)[C@H](O)[C@@H]1O)Oc1ccccc1)C(=O)O[C@H]1CCOC1 (mixture of isomers) [Example 64, (S)-Tetrahydrofuran-3-yl ((((2R,3S,4R,5S)-5-(4-aminopyrrolo[2,1-f][1,2,4]triazin-7-yl)-2-cyano-3,4-dihydroxytetrahydrofuran-2-yl)methoxy)(phenoxy)phosphoryl)-L-alaninate]			350	EC50 (RSV A2; [4]): 3500 nM
CC1CCC(OC(=O)C(C)NP(=O)(OCC2(C#N)OC(c3ccc4c(N)ncnn34)C(O)C2O)Oc2ccccc2)CC1 (stereo not shown) [Example 144]	65	614		
C[C@H](N[P@@](=O)(OC[C@@]1(C#N)O[C@@H](c2ccc3c(N)ncnn23)[C@H](O)[C@@H]1O)Oc1ccccc1)C(=O)O[C@H]1CC[C@H](C(C)(C)C)CC1 (single isomer, unassigned) [Example 23]			207	EC50 (RSV A2; [4]): 34 nM
COC(=O)[C@H](C)NP(=O)(OC[C@@]1(C#N)O[C@@H](c2ccc3c(N)ncnn23)[C@H](O)[C@@H]1O)Oc1ccc(C[C@H](N)C(=O)OC)cc1 (single isomer, unassigned) [Example 63]	> 5000	4070		
CCOC(=O)c1ccccc1OP1(=O)OC[C@@]2(C#N)O[C@@H](c3ccc4c(N)ncnn34)[C@H](O)[C@@H]2O1 (stereo partly drawn) [Example 224, ethyl 2-(((4aR,6S,7S,7aS)-6-(4-aminopyrrolo[2,1-f][1,2,4]triazin-7-yl)-4a-cyano-7-hydroxy-2-oxidotetrahydro-4H-furo[3,2-d][1,3,2]dioxaphosphinin-2-yl)oxy)benzoate]				EC50 (RSV A2; [1]): 2830 nM
C[C@H](NP(=O)(OC[C@@]1(C#N)O[C@@H](c2ccc3c(N)ncnn23)[C@H](O)[C@@H]1O)Oc1ccccc1)C(=O)NC1CCCCC1 (stereo partly drawn) [Example 138, ((2R,3S,4R,5S)-5-(4-aminopyrrolo[2,1-f][1,2,4]triazin-7-yl)-2-cyano-3,4-dihydroxytetrahydrofuran-2-yl)methyl phenyl ((S)-1-(cyclohexylamino)-1-oxopropan-2-yl)phosphoramidate]			38500	EC50 (RSV A2; [4]): > 5000 nM
CCOC(=O)[C@H](C)NP(=O)(OC[C@@]1(C#N)O[C@@H](c2ccc3c(N)ncnn23)[C@H](O)[C@@H]1O)Oc1ccc(C(C)(C)C)cc1 (single isomer, unassigned) [Example 264]		41		
